Patent publication US8623859B2, “Bradykinin B1 antagonists” (Evotec AG, priority 2008, dated 2014)
Structures can show the parent of a compound that is named as a salt.

Target: T1, human B1 (Homo sapiens, UniProt P46663)
T1 construct: host or cells: CHO-K1
T1 sequence (P46663 1-353): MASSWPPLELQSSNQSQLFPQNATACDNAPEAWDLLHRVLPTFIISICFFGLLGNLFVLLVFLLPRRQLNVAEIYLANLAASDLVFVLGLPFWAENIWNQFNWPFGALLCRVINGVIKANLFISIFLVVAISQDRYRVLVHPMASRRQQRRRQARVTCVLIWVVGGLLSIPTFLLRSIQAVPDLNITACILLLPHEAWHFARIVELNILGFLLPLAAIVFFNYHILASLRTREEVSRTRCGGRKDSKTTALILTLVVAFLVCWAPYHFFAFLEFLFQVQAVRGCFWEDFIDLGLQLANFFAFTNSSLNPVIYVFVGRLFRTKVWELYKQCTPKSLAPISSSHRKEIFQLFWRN
Assay: Calcium flux assay for Bradykinin B1 antagonist, CHO-K1 cell line expressing human B1
Type: cell-based
Settings: CHO-K1 cells expressing human B1, agonist Lys-(Des-Arg)-Bradykinin, read-out: Potency (IC50 value against human B1)
Summary of the method: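 Inhibition of B1 agonist-evoked intracellular Ca2+ rise was followed by continuous fluorescence at 538 nm, with integrated, background-normalized signals plotted versus log compound concentration. Test compounds (eight 10-fold dilutions, triplicate, 1% DMSO final) were added 30 min at 25° C beforehand to Fluo-4AM-loaded human B1 CHO-K1 cells in pH 7.4 assay buffer.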

IC50 | Compound
0.1 to 1 µM | COc1cc(C)c(S(=O)(=O)N(C)Cc2nnc(C(=O)N3CCN(C4CCN(C)CC4)CC3)s2)c(C)c1 [Ex 332, 4-Methoxy-N,2,6-trimethyl-N-[(5-{[4-(1-methylpiperidin-4-yl)piperazin-1-yl]carbonyl}-1,3,4-thiadiazol-2-yl)methyl]benzenesulfonamide trifluoroacetamide]
0.01 to 0.1 µM | COc1cc(C)c(S(=O)(=O)N(Cc2cc(C(=O)N3CCN(CCCN(C)C)CC3)co2)C2CC2)c(C)c1 [Ex 118, N-Cyclopropyl-N-{[4-({4-[3-(dimethylamino)propyl]piperazin-1-yl}carbonyl)furan-2-yl]methyl}-4-methoxy-2,6-dimethylbenzenesulfonamide trifluoroacetate]
0.1 to 1 µM | COc1cc(C)c(S(=O)(=O)N(Cc2nc(C(=O)N3CCN(CC4CCN(C(=O)OC(C)(C)C)CC4)CC3)co2)C2CC2)c(C)c1 [Ex 238, trifluoroacetate]
0.1 to 1 µM | COc1cc(C)c(S(=O)(=O)N(C)Cc2cc(C(=O)N(C)Cc3ccc(CN4CCC(NC(C)=O)C4)cc3)co2)c(C)c1 (centres unmarked) [Ex 132, N-(4-{[3-(Acetylamino)pyrrolidin-1-yl]methyl}benzyl)-5-({[(4-methoxy-2,6-dimethylphenyl)sulfonyl](methyl)amino}methyl)-N-methylfuran-3-carboxamide]
0.1 to 1 µM | COc1cc(C)c(S(=O)(=O)N(C)Cc2cc(C(=O)NCc3ccc(CN4CCCCC4)cc3)co2)c(C)c1 [Ex 100, 5-({[(4-Methoxy-2,6-dimethylphenyl)sulfonyl](methyl)amino}methyl)-N-[4-(piperidin-1-ylmethyl)benzyl]furan-3-carboxamide trifluoroacetate]
< 0.01 µM | COc1cc(C)c(S(=O)(=O)N(Cc2cc(C(=O)N3CCN(CC4CCN(C)CC4)CC3)co2)C2CC2)c(C)c1 [Ex 89, N-Cyclopropyl-4-methoxy-2,6-dimethyl-N-{[4-({4-[(1-methylpiperidin-4-yl)methyl]piperazin-1-yl}carbonyl)furan-2-yl]methyl}benzenesulfonamide]
0.01 to 0.1 µM | COc1cc(C)c(S(=O)(=O)N(C)Cc2nc(C(=O)N(C)Cc3ccc(CN4CC(OC)C4)cc3)co2)c(C)c1 [Ex 173, N-{4-[(3-Methoxyazetidin-1-yl)methyl]benzyl}-2-({[(4-methoxy-2,6-dimethylphenyl)sulfonyl](methyl)amino}methyl)-N-methyl-1,3-oxazole-4-carboxamide]
< 0.01 µM | COc1cc(C)c(S(=O)(=O)N(Cc2nc(C(=O)N(C)Cc3ccc(CN4CCC(O)CC4)cc3)co2)C2CC2)c(C)c1 [Ex 181, 2-({Cyclopropyl[(4-methoxy-2,6-dimethylphenyl)sulfonyl]amino}methyl)-N-{4-[(4-hydroxypiperidin-1-yl)methyl]benzyl}-N-methyl-1,3-oxazole-4-carboxamide]
0.1 to 1 µM | COc1cc(C)c(S(=O)(=O)N(Cc2noc(C(=O)N3CCN(CCCCN(C)C)CC3)n2)C2CC2)c(C)c1 [Ex 320, N-Cyclopropyl-N-{[5-({4-[4-(dimethylamino)butyl]piperazin-1-yl}carbonyl)-1,2,4-oxadiazol-3-yl]methyl}-4-methoxy-2,6-dimethylbenzenesulfonamide trifluoroacetate]
0.01 to 0.1 µM | COc1cc(C)c(S(=O)(=O)N(C)Cc2nc(C(=O)N3CCN(CCCN4CCCC4)CC3)no2)c(C)c1 [Ex 325, 4-Methoxy-N,2,6-trimethyl-N-[(3-{[4-(3-pyrrolidin-1-ylpropyl)piperazin-1-yl]carbonyl}-1,2,4-oxadiazol-5-yl)methyl]benzenesulfonamide]
0.01 to 0.1 µM | COc1cc(C)c(S(=O)(=O)N(Cc2cc(C(=O)N(C)Cc3ccc(CN4CCC(O)CC4)cc3)co2)C2CC2)c(C)c1 [Ex 139, 5-({Cyclopropyl[(4-methoxy-2,6-dimethylphenyl)sulfonyl]amino}methyl)-N-{4-[(4-hydroxypiperidin-1-yl)methyl]benzyl}-N-methylfuran-3-carboxamide]
< 0.01 µM | COc1cc(C)c(S(=O)(=O)N(Cc2nc(C(=O)N3CCN(Cc4c[nH]c(C)n4)CC3)co2)C2CC2)c(C)c1 [Ex 250, N-Cyclopropyl-4-methoxy-2,6-dimethyl-N-{[4-({4-[(2-methyl-1H-imidazol-4-yl)methyl]piperazin-1-yl}carbonyl)-1,3-oxazol-2-yl]methyl}benzenesulfonamide]
0.1 to 1 µM | COc1cc(C)c(S(=O)(=O)N(C)Cc2cc(C(=O)N3CCN(C4CCN(C)CC4)CC3)no2)c(C)c1 [Ex 65, 4-Methoxy-N,2,6-trimethyl-N-[(3-{[4-(1-methylpiperidin-4-yl)piperazin-1-yl]carbonyl}isoxazol-5-yl)methyl]benzenesulfonamide]
0.1 to 1 µM | CN(Cc1cc(C(=O)NCCc2ccc(C3=NCCN3)cc2)co1)S(=O)(=O)c1c(Cl)cc(Br)cc1Cl [Ex 25, 5-({[(4-bromo-2,6-dichlorophenyl)sulfonyl](methyl)amino}methyl)-N-{2-[4-(4,5-dihydro-1H-imidazol-2-yl)phenyl]ethyl}furan-3-carboxamide]
< 0.01 µM | COc1cc(C)c(S(=O)(=O)N(C)Cc2nnc(C(=O)N3CCN(Cc4ccc(Cl)nc4)CC3)o2)c(C)c1 [Ex 297, N-{[5-({4-[(6-Chloropyridin-3-yl)methyl]piperazin-1-yl}carbonyl)-1,3,4-oxadiazol-2-yl]methyl}-4-methoxy-N,2,6-trimethylbenzenesulfonamide]
0.01 to 0.1 µM | COc1cc(C)c(S(=O)(=O)N(Cc2cc(C(=O)N(C)Cc3ccc(CN4CCC(OC)C4)cc3)co2)C2CC2)c(C)c1 (centres unmarked) [Ex 145, 5-({Cyclopropyl[(4-methoxy-2,6-dimethylphenyl)sulfonyl]amino}methyl)-N-{4-[(3-methoxypyrrolidin-1-yl)methyl]benzyl}-N-methylfuran-3-carboxamide]
0.1 to 1 µM | Cc1cc(S(=O)(=O)N(C)Cc2cc(C(=O)N(C)CCc3ccc(C4=NCCN4)cc3)co2)c(C)cc1Cl [Ex 28, 5-({[(4-chloro-2,5-dimethylphenyl)sulfonyl](methyl)amino}methyl)-N-{2-[4-(4,5-dihydro-1H-imidazol-2-yl)phenyl]ethyl}-N-methylfuran-3-carboxamide]
< 0.01 µM | COc1cc(C)c(S(=O)(=O)N(Cc2nnc(C(=O)N3CCN(CC4CCN(C)CC4)CC3)o2)C2CC2)c(C)c1 [Ex 272, N-Cyclopropyl-4-methoxy-2,6-dimethyl-N-{[5-({4-[(1-methylpiperidin-4-yl)methyl]piperazin-1-yl}carbonyl)-1,3,4-oxadiazol-2-yl]methyl}benzenesulfonamide]
0.1 to 1 µM | COc1cc(C)c(S(=O)(=O)N(Cc2cc(C(=O)N3CCN(C4CCN(C)CC4)CC3)co2)C2CC2)c(C)c1 [Ex 53, N-cyclopropyl-4-methoxy-2,6-dimethyl-N-[(4-{[4-(1-methylpiperidin-4-yl)piperazin-1-yl]carbonyl}furan-2-yl)methyl]benzenesulfonamide]
< 0.01 µM | COc1cc(C)c(S(=O)(=O)N(Cc2nc(C(=O)N(C)Cc3ccc(CN4CC(OC)C4)cc3)co2)C2CC2)c(C)c1 [Ex 187, 2-({Cyclopropyl[(4-methoxy-2,6-dimethylphenyl)sulfonyl]amino}methyl)-N-{4-[(3-methoxyazetidin-1-yl)methyl]benzyl}-N-methyl-1,3-oxazole-4-carboxamide]
< 0.01 µM | COc1cc(C)c(S(=O)(=O)N(Cc2nc(C(=O)N(C)Cc3ccc(CN4CC(O)C(O)C4)cc3)co2)C2CC2)c(C)c1 (centres unmarked) [Ex 189, 2-({Cyclopropyl[(4-methoxy-2,6-dimethylphenyl)sulfonyl]amino}methyl)-N-{4-[(3,4-dihydroxypyrrolidin-1-yl)methyl]benzyl}-N-methyl-1,3-oxazole-4-carboxamide]
0.1 to 1 µM | COc1cc(C)c(S(=O)(=O)N(C)Cc2cc(C(=O)N(C)Cc3ccc(CN4CCC(OC)C4)cc3)co2)c(C)c1 (centres unmarked) [Ex 129, 5-({[(4-Methoxy-2,6-dimethylphenyl)sulfonyl](methyl)amino}methyl)-N-{4-[(3-methoxypyrrolidin-1-yl)methyl]benzyl}-N-methylfuran-3-carboxamide]
0.1 to 1 µM | COc1cc(C)c(S(=O)(=O)N(C)Cc2cc(C(=O)NC3CC(C)(C)N(C)C(C)(C)C3)co2)c(C)c1 [Ex 3, 5-({[(4-methoxy-2,6-dimethylphenyl)sulfonyl](methyl)amino}methyl)-N-(1,2,2,6,6-pentamethylpiperidin-4-yl)furan-3-carboxamide]
0.01 to 0.1 µM | COc1cc(C)c(S(=O)(=O)N(Cc2nc(C(=O)N3CCC(c4ccncc4)CC3)co2)C2CC2)c(C)c1 [Ex 231, N-Cyclopropyl-4-methoxy-2,6-dimethyl-N-({4-[(4-pyridin-4-ylpiperidin-1-yl)carbonyl]-1,3-oxazol-2-yl}methyl)benzenesulfonamide]
< 0.01 µM | COc1cc(C)c(S(=O)(=O)N(C)Cc2noc(C(=O)N3CCC(CCN4CCCC4)CC3)n2)c(C)c1 [Ex 310, 4-Methoxy-N,2,6-trimethyl-N-[(5-{[4-(2-pyrrolidin-1-ylethyl)piperidin-1-yl]carbonyl}-1,2,4-oxadiazol-3-yl)methyl]benzenesulfonamide]
0.1 to 1 µM | CN(Cc1cc(C(=O)NCc2ccc(C3=NCCN3)cc2)co1)S(=O)(=O)c1c(Cl)cccc1Cl [Ex 26, 5-({[(2,6-dichlorophenyl)sulfonyl](methyl)amino}methyl)-N-[4-(4,5-dihydro-1H-imidazol-2-yl)benzyl]furan-3-carboxamide]
